# Where two headings read alike, the source gives them in different places.
# Assays:
# [1] = tested on: Capnocytophaga sputigena; experiment: Biofilm growth assay in BHI, crystal violet; assay type: cell-based; details: C sputigena
# Experimental: (§1) Late exponential growth phase liquid cultures were prepared by transferring the respective bacterium from blood agar plates to BHI and overnight incubation at 37° C. in an anaerobic atmosphere for A. viscosus, V. parvula, F. nucleatum, P. gingivalis, P. intermedia, T. forsythia, A. naeslundii, and C. sputigena, and in a 5% CO2 environment for S. salivarius, S. sanguinis, S. mitis, A. actinomycetemcomitans, S. mutans, and S. gordonii. […] Additionally, for each bacterium tested, a background control, to correct for background staining, was added. This background control contained the bacterium tested and 0.03 weight % chlorhexidine, as an antiseptic. Plates were incubated as previously described. After 48 hrs the supernatant was removed from the wells of the plates. The wells were washed twice with 1×100 μL/PBS (phosphate buffered saline), fixed for 20 minutes with 96% vol. ethanol (96% vol. solution in water) and the biofilm retained at the bottom of the wells was stained with 1 weight % crystal violet (1 weight % solution in water). […] Quantification of the stained biofilm was performed by measuring the absorbance at 630 nm using a Multiskan Ascent microplate reader (Thermo Scientific).
# [2] = tested on: Prevotella intermedia; experiment: Biofilm growth assay in BHI, crystal violet; assay type: cell-based; details: P intermedia
# Experimental: as §1
# [3] = tested on: Streptococcus mutans; experiment: Biofilm growth assay in BHI, crystal violet; assay type: cell-based; details: S mutans
# Experimental: as §1
# [4] = tested on: Streptococcus mitis; experiment: Biofilm growth assay in BHI, crystal violet; assay type: cell-based; details: S mitis
# Experimental: as §1
# [5] = tested on: Veillonella parvula; experiment: Biofilm growth assay in BHI, crystal violet; assay type: cell-based; details: V parvula
# Experimental: as §1
# [6] = tested on: Actinomyces naeslundii; experiment: Biofilm growth assay in BHI, crystal violet; assay type: cell-based; details: A naeslundii
# Experimental: as §1
# [7] = tested on: Streptococcus salivarius; experiment: Biofilm growth assay in BHI, crystal violet; assay type: cell-based; details: S salivarius
# Experimental: as §1
# [8] = tested on: Streptococcus sanguinis; experiment: Biofilm growth assay in BHI, crystal violet; assay type: cell-based; details: S sanguinis
# Experimental: as §1
# [9] = tested on: Tannerella forsythia; experiment: Biofilm growth assay in BHI, crystal violet; assay type: cell-based; details: T forsythia
# Experimental: as §1
# [10] = tested on: Fusobacterium nucleatum; experiment: Biofilm growth assay in BHI, crystal violet; assay type: cell-based; details: F nucleatum
# Experimental: as §1
# [11] = tested on: Actinomyces viscosus; experiment: Biofilm growth assay in BHI, crystal violet; assay type: cell-based; details: A viscosus
# Experimental: as §1
# [12] = tested on: Porphyromonas gingivalis; experiment: Biofilm growth assay in BHI, crystal violet; assay type: cell-based; details: P gingivalis
# Experimental: as §1
# [13] = tested on: Streptococcus gordonii; experiment: Biofilm growth assay in BHI, crystal violet; assay type: cell-based; details: S gordonii
# Experimental: as §1
# [14] = tested on: Streptococcus sobrinus; details: S sobrinus, BHI
# Experimental: (§2) Late exponential growth phase liquid cultures were prepared by transferring the respective bacterium from blood agar plates to BHI and overnight incubation at 37° C. in an anaerobic atmosphere for A. viscosus, V. parvula, F. nucleatum, P. gingivalis, P. intermedia, T forsythia, A. naeslundii, and C. sputigena, and in a 5% CO2 environment for S. salivarius, S. sanguinis, S. mitis, A. actinomycetemcomitans, S. mutans, S. sobrinus and S. gordonii. Overnight cultures were transferred to BHI and adjusted to a concentration of 1×10^7 CFU/ml (colony forming units per ml) by measuring the optical density at 600 nm (OD600) (BioRad SmartSpec 3000). For each strain, 200 μl of the bacterial suspension was added to a 96-well plate containing 20 μl of the respective carboxylic acids. Final concentrations of the carboxylic acids were set to 5, 10, 20 and 25 μmol/ml. […] Plates were incubated as previously described.
# (§3) For each combination of bacterium/carboxylic acid, and for each of their respective controls (i.e. the particular bacterium in the nutritionally rich medium with no carboxylic acid), the optical density was measured at 630 nm (OD630) at 0 h, 24 h and 48 h (Thermo Scientific Multiskan Ascent). Additionally, the OD630 for combinations of bacterium/carboxylic acid grown in a 5% CO2 environment were also measured every hour between 0 h and 9 h.
# (§4) The experiment was carried out on three different days (thus providing 3 biological replicas) and on each day the experiment was carried out in quadruple (thus providing 4 technical replicas) for each combination of bacterium with carboxylic acid and for each control. For each day and for each combination, the average (mean) of the values obtained (as detailed above) for the four technical replicas was calculated to provide a single value for each combination on each day.
# [15] = tested on: beneficial oral bacteria and pathogenic oral bacteria; experiment: Metabolic activity, prebiotic effect over the whole panel; assay type: cell-based; details: threshold value of 2
# [16] = tested on: Aggregatibacter actinomycetemcomitans; details: A actinomycetemcomitans, BHI
# Experimental: as §2, §3, §4
structure (smiles),measurement,setting,value
"O=C(O)CCC(=O)O [Succinic acid, succinic acid]","biofilm growth, OD at 630 nm (crystal violet) at 48 hrs divided by OD of control (control = 1)",[1]; 5 μmol/ml,2.0880
same,"biofilm growth, OD at 630 nm (crystal violet) at 48 hrs divided by OD of control (control = 1)",[1]; 10 μmol/ml,2.1577
same,"biofilm growth, OD at 630 nm (crystal violet) at 48 hrs divided by OD of control (control = 1)",[1]; 20 μmol/ml,0.2256
same,"biofilm growth, OD at 630 nm (crystal violet) at 48 hrs divided by OD of control (control = 1)",[1]; 25 μmol/ml,0.3202
same,"biofilm growth, OD at 630 nm (crystal violet) at 48 hrs divided by OD of control (control = 1)",[2]; 5 μmol/ml,0.8344
same,"biofilm growth, OD at 630 nm (crystal violet) at 48 hrs divided by OD of control (control = 1)",[2]; 10 μmol/ml,0.7023
same,"biofilm growth, OD at 630 nm (crystal violet) at 48 hrs divided by OD of control (control = 1)",[2]; 20 μmol/ml,0.0589
same,"biofilm growth, OD at 630 nm (crystal violet) at 48 hrs divided by OD of control (control = 1)",[2]; 25 μmol/ml,0.1442
same,"biofilm growth, OD at 630 nm (crystal violet) at 48 hrs divided by OD of control (control = 1)",[3]; 5 μmol/ml,0.0053
same,"biofilm growth, OD at 630 nm (crystal violet) at 48 hrs divided by OD of control (control = 1)",[3]; 10 μmol/ml,0.2498
same,"biofilm growth, OD at 630 nm (crystal violet) at 48 hrs divided by OD of control (control = 1)",[3]; 20 μmol/ml,1.9127
same,"biofilm growth, OD at 630 nm (crystal violet) at 48 hrs divided by OD of control (control = 1)",[3]; 25 μmol/ml,0.9686
same,"biofilm growth, OD at 630 nm (crystal violet) at 48 hrs divided by OD of control (control = 1)",[4]; 5 μmol/ml,0.1603
same,"biofilm growth, OD at 630 nm (crystal violet) at 48 hrs divided by OD of control (control = 1)",[4]; 10 μmol/ml,0.1188
same,"biofilm growth, OD at 630 nm (crystal violet) at 48 hrs divided by OD of control (control = 1)",[4]; 20 μmol/ml,0.0851
same,"biofilm growth, OD at 630 nm (crystal violet) at 48 hrs divided by OD of control (control = 1)",[4]; 25 μmol/ml,0.1085
same,"biofilm growth, OD at 630 nm (crystal violet) at 48 hrs divided by OD of control (control = 1)",[5]; 5 μmol/ml,0.9059
same,"biofilm growth, OD at 630 nm (crystal violet) at 48 hrs divided by OD of control (control = 1)",[5]; 10 μmol/ml,1.0118
same,"biofilm growth, OD at 630 nm (crystal violet) at 48 hrs divided by OD of control (control = 1)",[5]; 20 μmol/ml,1.1681
same,"biofilm growth, OD at 630 nm (crystal violet) at 48 hrs divided by OD of control (control = 1)",[5]; 25 μmol/ml,1.4334
same,"biofilm growth, OD at 630 nm (crystal violet) at 48 hrs divided by OD of control (control = 1)",[6]; 5 μmol/ml,0.7746
same,"biofilm growth, OD at 630 nm (crystal violet) at 48 hrs divided by OD of control (control = 1)",[6]; 10 μmol/ml,0.2490
same,"biofilm growth, OD at 630 nm (crystal violet) at 48 hrs divided by OD of control (control = 1)",[6]; 20 μmol/ml,0.0240
same,"biofilm growth, OD at 630 nm (crystal violet) at 48 hrs divided by OD of control (control = 1)",[6]; 25 μmol/ml,0.0182
same,"biofilm growth, OD at 630 nm (crystal violet) at 48 hrs divided by OD of control (control = 1)",[7]; 5 μmol/ml,3.7553
same,"biofilm growth, OD at 630 nm (crystal violet) at 48 hrs divided by OD of control (control = 1)",[7]; 10 μmol/ml,1.2358
same,"biofilm growth, OD at 630 nm (crystal violet) at 48 hrs divided by OD of control (control = 1)",[7]; 20 μmol/ml,0.6125
same,"biofilm growth, OD at 630 nm (crystal violet) at 48 hrs divided by OD of control (control = 1)",[7]; 25 μmol/ml,1.7869
same,"biofilm growth, OD at 630 nm (crystal violet) at 48 hrs divided by OD of control (control = 1)",[8]; 5 μmol/ml,3.3955
same,"biofilm growth, OD at 630 nm (crystal violet) at 48 hrs divided by OD of control (control = 1)",[8]; 10 μmol/ml,2.9778
same,"biofilm growth, OD at 630 nm (crystal violet) at 48 hrs divided by OD of control (control = 1)",[8]; 20 μmol/ml,1.7748
same,"biofilm growth, OD at 630 nm (crystal violet) at 48 hrs divided by OD of control (control = 1)",[8]; 25 μmol/ml,1.9952
same,"biofilm growth, OD at 630 nm (crystal violet) at 48 hrs divided by OD of control (control = 1)",[9]; 5 μmol/ml,0.3223
same,"biofilm growth, OD at 630 nm (crystal violet) at 48 hrs divided by OD of control (control = 1)",[9]; 10 μmol/ml,0.0000
same,"biofilm growth, OD at 630 nm (crystal violet) at 48 hrs divided by OD of control (control = 1)",[9]; 20 μmol/ml,0.0000
same,"biofilm growth, OD at 630 nm (crystal violet) at 48 hrs divided by OD of control (control = 1)",[9]; 25 μmol/ml,0.0000
same,"biofilm growth, OD at 630 nm (crystal violet) at 48 hrs divided by OD of control (control = 1)",[10]; 5 μmol/ml,2.7146
same,"biofilm growth, OD at 630 nm (crystal violet) at 48 hrs divided by OD of control (control = 1)",[10]; 10 μmol/ml,5.3887
same,"biofilm growth, OD at 630 nm (crystal violet) at 48 hrs divided by OD of control (control = 1)",[10]; 20 μmol/ml,0.5404
same,"biofilm growth, OD at 630 nm (crystal violet) at 48 hrs divided by OD of control (control = 1)",[10]; 25 μmol/ml,0.1087
same,"biofilm growth, OD at 630 nm (crystal violet) at 48 hrs divided by OD of control (control = 1)",[11]; 5 μmol/ml,0.3969
same,"biofilm growth, OD at 630 nm (crystal violet) at 48 hrs divided by OD of control (control = 1)",[11]; 10 μmol/ml,0.3190
same,"biofilm growth, OD at 630 nm (crystal violet) at 48 hrs divided by OD of control (control = 1)",[11]; 20 μmol/ml,0.0498
same,"biofilm growth, OD at 630 nm (crystal violet) at 48 hrs divided by OD of control (control = 1)",[11]; 25 μmol/ml,0.0622
same,"biofilm growth, OD at 630 nm (crystal violet) at 48 hrs divided by OD of control (control = 1)",[12]; 5 μmol/ml,1.0520
same,"biofilm growth, OD at 630 nm (crystal violet) at 48 hrs divided by OD of control (control = 1)",[12]; 10 μmol/ml,1.0031
same,"biofilm growth, OD at 630 nm (crystal violet) at 48 hrs divided by OD of control (control = 1)",[12]; 20 μmol/ml,0.1065
same,"biofilm growth, OD at 630 nm (crystal violet) at 48 hrs divided by OD of control (control = 1)",[12]; 25 μmol/ml,0.1691
same,"biofilm growth, OD at 630 nm (crystal violet) at 48 hrs divided by OD of control (control = 1)",[13]; 5 μmol/ml,2.3866
same,"biofilm growth, OD at 630 nm (crystal violet) at 48 hrs divided by OD of control (control = 1)",[13]; 10 μmol/ml,4.4978
same,"biofilm growth, OD at 630 nm (crystal violet) at 48 hrs divided by OD of control (control = 1)",[13]; 20 μmol/ml,1.6591
same,"biofilm growth, OD at 630 nm (crystal violet) at 48 hrs divided by OD of control (control = 1)",[13]; 25 μmol/ml,0.5512
same,"extent of growth, maximal OD630 over 48 hr divided by maximal OD of control (control = 1)",[14]; 5 μmol/ml,0.9460
same,"extent of growth, maximal OD630 over 48 hr divided by maximal OD of control (control = 1)",[14]; 10 μmol/ml,0.8269
same,"extent of growth, maximal OD630 over 48 hr divided by maximal OD of control (control = 1)",[14]; 20 μmol/ml,0.4744
same,"extent of growth, maximal OD630 over 48 hr divided by maximal OD of control (control = 1)",[14]; 25 μmol/ml,0.2284
same,prebiotic effect (metabolic activity),[15]; 24 hrs,exhibited prebiotic effects
same,prebiotic effect (metabolic activity),[15]; 48 hrs,exhibited prebiotic effects
same,"extent of growth, maximal OD630 over 48 hr divided by maximal OD of control (control = 1)",[16]; 5 μmol/ml,0.6497
same,"extent of growth, maximal OD630 over 48 hr divided by maximal OD of control (control = 1)",[16]; 10 μmol/ml,0.4197
same,"extent of growth, maximal OD630 over 48 hr divided by maximal OD of control (control = 1)",[16]; 20 μmol/ml,0.1940
same,"extent of growth, maximal OD630 over 48 hr divided by maximal OD of control (control = 1)",[16]; 25 μmol/ml,0.1968

# Reference: patent publication US10945932B2, “Prebiotic oral care compositions containing carboxylic acids” (COLGATE-PALMOLIVE COMPANY, priority 2013, dated 2021)
